Source: article PMC11546340 (BMC Chemistry, 2024)
Several values for one entry are separate records, joined by “and”; a condition that tells them apart may be missing. Identical values can stand only once.

What was measured:
[1] = system: human plasma; test: Plasma protein binding, HT Dialysis 96-well apparatus, LC-MS/MS; assay type: in vitro ADME; conditions: 3 µM
[2] = as above; assay type: in vitro ADME; conditions: male, human, plasma, pH 7.4, Recovery (%), mean, n = 4

- Bound (%) ([1]; individual replicates 1-4): 99.01% and 99.07% and 98.91% and 98.99%
- Recovery (%) ([1]; individual replicates 1-4): 80.60% and 94.07% and 119.11% and 83.10%
- Unbound (%) ([1]; individual replicates 1-4): 0.99% and 0.93% and 1.09% and 1.01%
- Unbound (%) ([1]; mean, n = 4): 1.01%
- recovery at 5 h, 3 µM [2]: 94.2%
Structure (SMILES): O=C(O)Cc1ccccc1Nc1c(Cl)cccc1Cl [Diclofenac]
